Columns and labels:
[1] = system: antibody to FK778; assay: Interference of prescription drugs in the […] FK778 competitive chemiluminescent immunoassay; assay type: binding
Protocol: FK778 assays were performed by an […]® instrument, commercially available from Abbott Laboratories, Abbott Park, Ill., according to the following procedure. See also U.S. Pat. Nos. 5,795,784 and 5,856,194, both of which are incorporated herein by reference. A serum sample (10 μL) was diluted with Line Diluent at a ratio of 1 part sample to 20 parts Line Diluent. A portion of the diluted sample (10 μL) was mixed with 90 μL of Conjugate Reagent and 50 μL of Line Diluent. Magnetic Microparticle Reagent (50 μL) and Bihapten Tracer Reagent (50 μL) were added to the foregoing mixture after a period of six (6) seconds. The resulting mixture (250 μL) was incubated for 25 minutes. The microparticles were washed three (3) times with 1 mL of Line Diluent. The magnetic particles were attracted to a magnet at the same time that they were being washed. The washed microparticles were treated with Pretrigger Reagent (100 μL acidic hydrogen peroxide). Finally, the chemiluminescent reaction was triggered by addition of Trigger Reagent (alkaline detergent solution (300 μL)). Measurement of light generated was carried out by means of a photomultiplier tube.
This example illustrates interference with prescription drugs. Interference was tested for 44 of 45 prescription drugs at levels recommended in NCCLS document EP-7P. Interference was tested in the presence of FK778 and absence of FK778 in the sample. Interference was defined as greater than 5 μg/mL (without FK778) or greater than 10% (with FK778). […] Both interferences were expected; fluorescein because of its competition with the FK778-fluorescein bihapten tracer and A77,1726 because of its similarity in structure to FK778.
Fluorescein is used in in vivo diagnostic procedures to measure blood flow in the eye and is not expected to be present in patients undergoing a transplant. 10 Nevertheless, fluorescein was tested more thoroughly to estimate the magnitude of the interference at concentrations lower than 400 μg/mL.
Additional testing was also carried out with A77, 1726 to assess the cross-reactivity of this molecule in the presence and absence of FK778.

[2] = humans; cited from earlier work

SMILES: C/C(O)=C(\C#N)C(=O)Nc1ccc(C(F)(F)F)cc1 [A77 1726]
- % Cross-reactivity A77,1726 ([1]; A77,1726 50 μg/mL, High FK778): 13%
- A77,1726 measured as FK778 ([1]; A77,1726 50 μg/mL, High FK778): 152.9 µg/mL
- % Cross-reactivity A77,1726 ([1]; A77,1726 50 μg/mL, Low FK778): 43%
- A77,1726 measured as FK778 ([1]; A77,1726 50 μg/mL, Low FK778): 42.3 µg/mL
- % Cross-reactivity A77,1726 ([1]; A77,1726 50 μg/mL, Med FK778): 24%
- A77,1726 measured as FK778 ([1]; A77,1726 50 μg/mL, Med FK778): 85 µg/mL
- % Cross-reactivity A77,1726 ([1]; A77,1726 100 μg/mL, High FK778): 23%
- A77,1726 measured as FK778 ([1]; A77,1726 100 μg/mL, High FK778): 170.1 µg/mL
- % Cross-reactivity A77,1726 ([1]; A77,1726 100 μg/mL, Low FK778): 42%
- A77,1726 measured as FK778 ([1]; A77,1726 100 μg/mL, Low FK778): 62.6 µg/mL
- % Cross-reactivity A77,1726 ([1]; A77,1726 100 μg/mL, Med FK778): 31%
- A77,1726 measured as FK778 ([1]; A77,1726 100 μg/mL, Med FK778): 103.4 µg/mL
- % Cross-reactivity A77,1726 ([1]; A77,1726 200 μg/mL, High FK778): 34%
- A77,1726 measured as FK778 ([1]; A77,1726 200 μg/mL, High FK778): 209.3 µg/mL
- % Cross-reactivity A77,1726 ([1]; A77,1726 200 μg/mL, Low FK778): 42%
- A77,1726 measured as FK778 ([1]; A77,1726 200 μg/mL, Low FK778): 104.8 µg/mL
- % Cross-reactivity A77,1726 ([1]; A77,1726 200 μg/mL, Med FK778): 37%
- A77,1726 measured as FK778 ([1]; A77,1726 200 μg/mL, Med FK778): 145.5 µg/mL
- % Cross-reactivity A77,1726 ([1]; A77,1726 200 μg/mL, Zero FK778): 47%
- A77,1726 measured as FK778 ([1]; A77,1726 200 μg/mL, Zero FK778): 94.9 µg/mL
- Interference ([1]; defined as greater than 5 μg/mL (without FK778) or greater than 10% (with FK778)): Interference was observed
- plasma half-life [2]: 15 to 18 days

SMILES: C#CCC/C(O)=C(\C#N)C(=O)Nc1ccc(C(F)(F)F)cc1 [FK778]
- plasma half-life compared with A77 1726 [2]: shorter

— patent US20070161123A1, “DETERMINATION OF CONCENTRATION OF FK778 BY COMPETITIVE IMMUNOASSAY” (priority 2006, published 2007)
